One experiment concerns blood platelets. Kind of experiment: Cold storage of PRP blood platelets, aggregation of thrombocytes after storage. The experiment is classed as cell-based. As to conditions: 30 mM; PRP platelets stored at 4° C.; 264 hours. Details: key: − means that most of the thrombocytes were aggregated; a + indicates that a few cells were still viable but some cells aggregated; a ++ indicates that almost all cells were viable. As to the method:
PRP platelets were harvested and 2.1 ml was suspended in Poly Propylene tubes of 5 ml, closed with a stop.
Several compounds according to the invention were added to the blood platelets directly after preparing the PRP plasma and incubated during 10 minutes at 37° C. or 30 minutes at room temperature. The blood platelets with the compound were then stored at 4° C.
A control was stored under shaking conditions at room temperature. Another control was stored at 4° C. without the addition of a compound.
A sample was taken out of each tube after 264 hours after addition of the compound and tested as follows: • The color and coagulation properties were visually analysed. • The thrombocyte cells that survived were counted and it was evaluated whether the thrombocytes were aggregated. • It was evaluated if the thrombocytes still were able to function after stimulation by the addition of ADP or under influence of collagen in a 96 well plate. • The adhesion was evaluated, meaning the ability of the platelets to bind collagen in a 6 well plate preincubated with collagen. • Via an ELISA assay, it was evaluated whether thromboxane was secreted from the platelets. Thromboxane facilitates aggregation and is produced by activated blood platelets.
Table 3 provides an overview of the results of the addition of the compounds to the blood platelets and evaluates the aggregation of the thrombocytes after addition of the compound according to the invention and cooling until 4° C.

Experiment [1] has as its system Human Embryo Kidney (HEK) 293 cells. The experiment can be described thus: Hypothermia/rewarming injury of HEK cells, trypan blue viability count. It counts as cell-based. Conditions: for viability at 0.01 µM / viability at 0.1 µM / viability at 1 µM / viability at 10 µM / viability at 100 µM / viability at 1000 µM: Homo sapiens, HEK293, 24 h, read-out: % cells that survived; for viability at 0.01 µM / viability at 0.1 µM / viability at 1 µM / viability at 10 µM / viability at 100 µM / viability at 1000 µM / % cells that survived: 24 h at 4° C., 24 h rewarming; for % cells that survived, Mean: mean over the tested concentrations.

With `Cc1c(C)c2c(c(C)c1O)CCC(C)(C(=O)N1CCC[C@H]1C(=O)O)O2` (mixture of isomers) [SUL - 143, (2S)-1-(6-hydroxy-2,5,7,8-tetramethylchroman-2-carbonyl)pyrrolidine-2-carboxylic acid], the “Aggregation of blood platelets after storage” value (from here on “Aggregation of blood platelets”) in the experiment on blood platelets is recorded as “+”. Also, in experiment [1] (10 nM), the viability at 0.01 µM is 30.6%. For the same molecule, in experiment [1] (100 nM), the viability at 0.1 µM stood at 35%. The viability at 1 µM in experiment [1] (1 μM) amounted to 14.9%. Also, the viability at 10 µM in experiment [1] (10 μM) was 49.5%. Besides, in experiment [1] (100 μM), the viability at 100 µM amounted to 97.8%. Further, the viability at 1000 µM in experiment [1] (1 mM) worked out at 98.4%. For the same molecule, in experiment [1], the “% cells that survived, Mean” value came out at 54%.

As to `Cc1c(C)c2c(c(C)c1O)CCC(C)(C(=O)N1CCC[C@H]1C(=O)O)O2` (single isomer, unassigned) [SUL - 144], in the experiment on blood platelets, the “Aggregation of blood platelets” value is “+”. For the same molecule, the “% cells that survived” value in experiment [1] (10 nM) was 4.08%; in experiment [1] (10 μM), 25.93%. For the same molecule, the viability at 0.1 µM in experiment [1] (100 nM) came to 18.3%. Besides, the viability at 1 µM in experiment [1] (1 μM) came to 21.6%. For the same molecule, in experiment [1] (100 μM), the viability at 100 µM stood at 91%. In experiment [1] (1 mM), the viability at 1000 µM was 92.6%. The “% cells that survived, Mean” value in experiment [1] stood at 42%.

`Cc1c(C)c2c(c(C)c1O)CCC(C)(C(=O)N1CCC[C@H]1C(=O)O)O2` (single isomer, unassigned) [SUL - 145]: the “Aggregation of blood platelets” value with blood platelets was “+”. The “% cells that survived” value turned out to be 12.99% in experiment [1] (10 nM); 28.68% in experiment [1] (100 nM); 21.43% in experiment [1] (1 μM); 7.84% in experiment [1] (10 μM); 78.61% in experiment [1] (100 μM); 88.08% in experiment [1] (1 mM). In addition, the “% cells that survived, Mean” value in experiment [1] was 40%.

`CNCCNC(=O)C1(C)CCc2c(C)c(O)c(C)c(C)c2O1` (stereo not shown) [SUL - 100, 6-hydroxy-2,5,7,8-tetramethyl-N-(2-(methylamino)ethyl)chroman-2-carboxamide]: in the experiment on blood platelets, the “Aggregation of blood platelets” value is “+”. Further, the viability at 0.01 µM in experiment [1] (10 nM) amounted to 77.8%. Besides, the viability at 0.1 µM in experiment [1] (100 nM) was determined as 76.9%. Further, the viability at 1 µM in experiment [1] (1 μM) turned out to be 63.2%. Also, the viability at 10 µM in experiment [1] (10 μM) was 68.8%. For the same molecule, in experiment [1] (100 μM), the viability at 100 µM was 55.6%. Moreover, in experiment [1] (1 mM), the viability at 1000 µM amounted to 0%. The “% cells that survived, Mean” value in experiment [1] is 57%.

`Cc1c(C)c2c(c(C)c1O)CCC(C)(C(=O)N1CCN(CCOCCO)CC1)O2` (stereo not shown) [SUL - 122, (6-hydroxy-2,5,7,8-tetramethylchroman-2-yl)(4-(2-(2-hydroxyethoxy)ethyl)piperazin-1-yl)methanone]: the viability at 0.01 µM in experiment [1] (10 nM) amounted to 5.15%. In experiment [1] (100 nM), the viability at 0.1 µM came to 22.5%. The viability at 1 µM in experiment [1] (1 μM) amounted to 85.6%. The viability at 10 µM in experiment [1] (10 μM) stood at 85.2%. Besides, the viability at 100 µM in experiment [1] (100 μM) was found to be 88.5%. The viability at 1000 µM in experiment [1] (1 mM) amounted to 55.6%. The “% cells that survived, Mean” value in experiment [1] turned out to be 57%.

As to `Cc1c(C)c2c(c(C)c1O)CCC(C)(C(=O)NCCC#N)O2` (stereo not shown) [SUL - 123, N-(2-cyanoethyl)-6-hydroxy-2,5,7,8-tetramethylchroman-2-carboxamide], in experiment [1] (10 nM), the viability at 0.01 µM was 68.4%. In addition, the viability at 0.1 µM in experiment [1] (100 nM) was 90.5%. The viability at 1 µM in experiment [1] (1 μM) stood at 83.2%. In experiment [1] (10 μM), the viability at 10 µM is 88.4%. In experiment [1] (100 μM), the viability at 100 µM came to 88.2%. Besides, in experiment [1] (1 mM), the viability at 1000 µM is 0.75%. In experiment [1], the “% cells that survived, Mean” value came out at 70%.

`Cc1c(C)c2c(c(C)c1O)CCC(C)(CN1CCC[C@H]1CO)O2` (stereo partly drawn) [SUL - 128, 2-(((S)-2-(hydroxymethyl)pyrrolidin-1-yl)methyl)-2,5,7,8-tetramethylchroman-6-ol]: the “% cells that survived” value was determined as 28.21% in experiment [1] (10 nM) and 0.00% in experiment [1] (1 mM). Further, in experiment [1] (100 nM), the viability at 0.1 µM was 100%. Besides, the viability at 1 µM in experiment [1] (1 μM) came out at 100%. The viability at 10 µM in experiment [1] (10 μM) was 100%. The viability at 100 µM in experiment [1] (100 μM) came to 99.4%. Besides, the “% cells that survived, Mean” value in experiment [1] is recorded as 71%.

Consider `Cc1c(C)c2c(c(C)c1O)CCC(C)(CN[C@H](CO)c1ccccc1)O2` (stereo partly drawn) [SUL - 129, 2-((((S)-2-hydroxy-1-phenylethyl)amino)methyl)-2,5,7,8-tetramethylchroman-6-ol], for which the viability at 0.01 µM in experiment [1] (10 nM) worked out at 0%. For the same molecule, in experiment [1] (100 nM), the viability at 0.1 µM turned out to be 5.65%. The viability at 1 µM in experiment [1] (1 μM) was determined as 88.8%. Besides, in experiment [1] (10 μM), the viability at 10 µM stood at 89.9%. The viability at 100 µM in experiment [1] (100 μM) was found to be 91.5%. The viability at 1000 µM in experiment [1] (1 mM) is 0%. For the same molecule, the “% cells that survived, Mean” value in experiment [1] is reported as 46%.

With `Cc1c(C)c2c(c(C)c1O)CCC(C)(CN1CCCCC1)O2` (stereo not shown) [SUL - 130, 2,5,7,8-tetramethyl-2-(piperidin-1-ylmethyl)chroman-6-ol], the viability at 0.01 µM in experiment [1] (10 nM) was determined as 0%. Also, in experiment [1] (100 nM), the viability at 0.1 µM was determined as 12.7%. For the same molecule, the viability at 1 µM in experiment [1] (1 μM) was 85.7%. Moreover, in experiment [1] (10 μM), the viability at 10 µM was 89.6%. Further, the viability at 100 µM in experiment [1] (100 μM) worked out at 86.5%. The viability at 1000 µM in experiment [1] (1 mM) worked out at 1.49%. Also, the “% cells that survived, Mean” value in experiment [1] was determined as 46%.

As for `Cc1c2c(c(C(C)C)c(O)c1C(C)C)CCC(C)(C(=O)NO)O2` (stereo not shown) [SUL - 131, N,6-dihydroxy-5,7-diisopropyl-2,8-dimethylchroman-2-carboxamide], in experiment [1] (10 nM), the viability at 0.01 µM was found to be 2.99%. In addition, the viability at 0.1 µM in experiment [1] (100 nM) amounted to 1.59%. Further, the viability at 1 µM in experiment [1] (1 μM) was found to be 22.5%. Moreover, the viability at 10 µM in experiment [1] (10 μM) was determined as 91.1%. The viability at 100 µM in experiment [1] (100 μM) was 75.4%. Also, in experiment [1] (1 mM), the viability at 1000 µM came out at 0%. The “% cells that survived, Mean” value in experiment [1] is listed as 32%.

Consider `Cc1c(C)c2c(c(C)c1O)CCC(C)(CN1CCC[C@H]1CO)O2` (stereo partly drawn) [SUL - 134, 2-(((S)-2-(hydroxymethyl)pyrrolidin-1-yl)methyl)-2,5,7,8-tetramethylchroman-6-ol], for which the “% cells that survived” value in experiment [1] (10 nM) stood at 87.43%; in experiment [1] (100 nM) it was 86.34%; in experiment [1] (1 μM), 87.74%; in experiment [1] (10 μM) it was 86.58%; in experiment [1] (100 μM), 88.82%; in experiment [1] (1 mM), 36.51%. In addition, in experiment [1], the “% cells that survived, Mean” value is 79%.

Regarding `Cc1c(C)c2c(c(C)c1O)CCC(C)(CN1CCC[C@H]1CO)O2` (stereo partly drawn) [SUL - 135, 2-(((S)-2-(hydroxymethyl)pyrrolidin-1-yl)methyl)-2,5,7,8-tetramethylchroman-6-ol], the “% cells that survived” value was found to be 71.94% in experiment [1] (10 nM); 83.90% in experiment [1] (100 nM); 93.82% in experiment [1] (1 μM); 93.85% in experiment [1] (10 μM); 83.46% in experiment [1] (100 μM); 33.06% in experiment [1] (1 mM). Further, in experiment [1], the “% cells that survived, Mean” value was 77%.

In the case of `Cc1c2c(c(C(C)C)c(O)c1C(C)C)CCC(C)(C(=O)N1CCNCC1)O2` (stereo not shown) [SUL - 137, (6-hydroxy-5,7-diisopropyl-2,8-dimethylchroman-2-yl)(piperazin-1-yl)methanone], the viability at 0.01 µM in experiment [1] (10 nM) was found to be 78.2%. Also, the viability at 0.1 µM in experiment [1] (100 nM) is 86.1%. Further, the viability at 1 µM in experiment [1] (1 μM) is 93.9%. The viability at 10 µM in experiment [1] (10 μM) was 90.9%. Also, the viability at 100 µM in experiment [1] (100 μM) was 78.7%. In addition, the viability at 1000 µM in experiment [1] (1 mM) stood at 0.53%. For the same molecule, the “% cells that survived, Mean” value in experiment [1] is given as 71%.

In the case of `CCOC(=O)CN1CCN(C(=O)C2(C)CCc3c(C)c(O)c(C)c(C)c3O2)CC1` (stereo not shown) [SUL - 140, ethyl 2-(4-(6-hydroxy-2,5,7,8-tetramethylchroman-2-carbonyl)piperazin-1-yl)acetate], the viability at 0.01 µM in experiment [1] (10 nM) came out at 8.7%. Further, in experiment [1] (100 nM), the viability at 0.1 µM came to 17.9%. Besides, in experiment [1] (1 μM), the viability at 1 µM is 95.7%. In addition, the viability at 10 µM in experiment [1] (10 μM) came to 97%. Further, in experiment [1] (100 μM), the viability at 100 µM is 94.6%. Further, in experiment [1] (1 mM), the viability at 1000 µM was 0%. Further, the “% cells that survived, Mean” value in experiment [1] is listed as 52%.

As for `COC(=O)C1(C)CCc2c(c(C)c(C(C)C)c(O)c2C(C)C)O1` (stereo not shown) [SUL - 146, methyl 6-hydroxy-5,7-diisopropyl-2,8-dimethylchroman-2-carboxylate], the viability at 0.01 µM in experiment [1] (10 nM) was 0.96%. Further, the viability at 0.1 µM in experiment [1] (100 nM) came to 17%. Also, the viability at 1 µM in experiment [1] (1 μM) stood at 90.6%. Besides, in experiment [1] (10 μM), the viability at 10 µM is 80.7%. Moreover, in experiment [1] (100 μM), the viability at 100 µM is 85.5%. In addition, in experiment [1] (1 mM), the viability at 1000 µM amounted to 0%. Moreover, the “% cells that survived, Mean” value in experiment [1] worked out at 46%.

The values are drawn from patent US11006626B2, “Compounds for protection of cells” (Sulfateq B.V., priority 2012, dated 2021).
